The test system of experiment [1] is patients with metastatic urothelial carcinoma (mUC). Nature of the experiment: Post hoc analysis of IMvigor130 biomarker-evaluable population: PD-L1 IHC assays (SP142, 22C3) and OS. Type of experiment: in vivo, human. The source says:
Clinically relevant biomarkers are needed to predict outcomes with immunotherapy in metastatic urothelial carcinoma (mUC). Different PD-L1 assays use various methods (e.g., scoring tumor and/or immune cells) to evaluate anti-PD-L1/PD-1 outcomes. […] Thus, it was hypothesized that the SP142 and 22C3 assays may be differentially associated with OS in IMvigor130 patients, which may be related to PD-L1 localization on specific immune cells such as dendritic cells (DCs). This Example describes a post hoc analysis that studied associations between two PD-L1 IHC assays (i.e., VENTANA SP142 and Dako 22C3) and OS in the biomarker-evaluable population of the IMvigor130 study.
The biomarker-evaluable population in this analysis consisted of patients with archival tumors in Arms B and C (Jun. 14, 2020 cutoff) (Galsky et al. Cancer Res. 81 (13_Supplement): CT042, 2021). Formalin-fixed paraffin-embedded (FFPE) tumor specimens from eligible IMvigor130 study patients were prospectively tested for PD-L1 IHC expression by a central laboratory prior to randomization (see, Example 1 for additional information). The IHC scores had three categories (IC0, IC1, IC2/3). The study enrolled all eligible patients whose tissue is evaluable for expression testing, regardless of PD-L1 expression status.
PD-L1 expression was evaluated by IHC (CellCarta) using the SP142 (Ventana) and 22C3 (Dako) assays in 322 patients treated with atezolizumab monotherapy (Arm B) and 305 patients treated with placebo+platinum-based chemotherapy (Arm C). Samples were also stained for IC subtypes. Assay cutoffs for the SP142 assay were IC ≥5% (IC2/3) and <5% (IC0/1). For the 22C3 assay, cutoffs were CPS ≥10 and <10.
A subset of tumor samples were also stained by IHC for the dendritic cell marker DC-LAMP (Clone 1010E1.01, Novus Biologicals). In silico deconvolution by xCell (Aran et al. Genome Biol. 18 (1): 220, 2017) was performed. Statistical analysis was performed to compare OS between subgroups using the stratified log-rank test.

Experiment [2] has as its system patients with untreated locally advanced or metastatic urothelial carcinoma. The experiment in a line: Phase III IMvigor130 study: overall survival, atezolizumab monotherapy (Arm B) vs placebo + platinum-based chemotherapy (Arm C). Format: in vivo, human. As to conditions: 1L mUC, May 31, 2019 cutoff. The source says:
This Example describes the IMvigor130 study, which is a Phase III, multicenter, randomized, placebo-controlled, partially blind study designed to evaluate the efficacy of atezolizumab given as monotherapy or in combination with platinum-based chemotherapy versus placebo in combination with platinum-based chemotherapy in patients with locally advanced or metastatic urothelial carcinoma who have not received prior systemic therapy.
The primary efficacy objective for this study is to evaluate the efficacy of atezolizumab plus platinum-based chemotherapy compared with placebo plus platinum-based chemotherapy on the basis of the following endpoints: • Co-primary endpoints of progression-free survival (PFS) and overall survival (OS) • PFS is defined as the time from randomization to the first documented disease progression as determined by the investigator with use of RECIST v1.1, or death due to any cause, whichever occurs first. • OS is defined as the time from randomization to death due to any cause. […]
Randomization was stratified by the following factors: • PD-L1 status (IC0 (<1%) vs. IC1 (≥1% and <5%) vs. IC2/3 (≥5%)). • Bajorin model risk factor score/liver metastasis (0 vs. 1 vs. 2 or patients with liver metastasis). • Investigator-determined chemotherapy (gemcitabine and carboplatin vs. gemcitabine and cisplatin). […]

[3] abbreviates: patients receiving atezolizumab monotherapy, biomarker-evaluable population, Jun. 14, 2020 cutoff.
Where [4] appears, read: untreated locally advanced or metastatic UC.

For the substance “atezolizumab: Fc-engineered, humanized, non-glycosylated IgG1 kappa immunoglobulin that binds PD-L1; heavy chain SEQ ID NO: 1, light chain SEQ ID NO: 2”, in experiment [1] (setting [3]), the “OS HR by 22C3 CPS scoring (CPS ≥10 versus CPS <10)” value is listed as 0.83 (0.63, 1.10) and the “OS HR by SP142 scoring (IC2/3 versus IC0/1)” value is 0.55 (0.39, 0.77). Also, the “OS in SP142 IC2/3 versus IC0/1 tumours” value in experiment [1] (patients with mUC) was “longer OS”. Also, in experiment [1] (setting [4]), the “OS by combined tumor status SP142 IC0/1 + 22C3 CPS ≥10” value is “shorter OS” and the “OS by combined tumor status SP142 IC2/3 + 22C3 CPS ≥10 (double positive)” value was “longer OS”. Further, in experiment [2] (PD-L1 IC2/3 by SP142 IHC assay), the “overall survival (OS) HR, atezolizumab monotherapy (Arm B) versus placebo+platinum-based chemotherapy (Arm C)” value is on record as 0.68. Besides, the “overall survival (OS) HR, atezolizumab monotherapy (Arm B) versus placebo+platinum-based chemotherapy (Arm C)” value in experiment [2] (PD-L1 IC2/3 cisplatin ineligible) stood at 0.53.

(Values after patent US20250257134A1, “THERAPEUTIC AND DIAGNOSTIC METHODS FOR BLADDER CANCER” (Genentech, Inc., priority 2022, published 2025).)
